Tests used:
male C57/Bl6 mice [1] = assay: Effect on spermatogenesis in vivo; set-up: species or system mouse
murine testicular cells = assay: Microscopic appearance of testicular cell cultures; assay type: cell-based, Sprague–Dawley rat; settings: 20 μM, over 72 hours, Figure 2
mouse fibroblasts = assay: LDH release cytotoxicity experiment using mouse fibroblasts; assay type: cell-based; settings: at 72 hours, P<0.01 between the two
male C57/Bl6 mice [2] = assay: Testicular histology after treatment in vivo; set-up: species or system mouse; settings: single dose, Bouin's fixative, Hematoxylin-Periodic acid Schiff's stain, Figure 3
Sertoli cells = assay: Anti-Mullerian hormone; assay type: cell-based, Sprague–Dawley rat; settings: 20 uM, after 24 and 48 hours of incubation; bright staining in control cultures
male C57/Bl6 mice [3] = assay: Systemic toxicity: complete blood counts and routine chemistries; assay type: in vivo, mouse; settings: melphalan alone 7.5 mg/kg ip once, data not shown
mice = settings: ref [24]; cited from earlier work
[4] = melphalan 7.5 mg/kg ip once on day 0, Week 4, n = 3 mice
[5] = melphalan 7.5 mg/kg ip once on day 0, Week 12, n = 3 mice

| SMILES | Daily Sperm Production/testis (male C57/Bl6 mice [1]; [4]) | Spermatids/Testis (male C57/Bl6 mice [1]; [4]) | Spermatids/mg of Tissue (male C57/Bl6 mice [1]; [4]) | Daily Sperm Production/testis (male C57/Bl6 mice [1]; [5]) | Spermatids/Testis (male C57/Bl6 mice [1]; [5]) | Spermatids/mg of Tissue (male C57/Bl6 mice [1]; [5]) | Microscopic appearance of cultures compared to control cultures (murine testicular cells) | LDH release (mouse fibroblasts) | Testis histology at four weeks (male C57/Bl6 mice [2]) | Staining for AMH (marker of Sertoli cells) (Sertoli cells) | Lymphocytes count at 4 weeks (male C57/Bl6 mice [3]; 4 weeks) | Lymphocyte count at 12 weeks (male C57/Bl6 mice [3]; 12 weeks) | Increase of contraceptive efficacy by conjugation to FSHβ (mice) |
| --- | --- | --- | --- | --- | --- | --- | --- | --- | --- | --- | --- | --- | --- |
| N[C@@H](Cc1ccc(N(CCCl)CCCl)cc1)C(=O)O [Melphalan] | 0.515±0.013 ×10^6 | 2.5±0.06 ×10^6 | 0.054±0.003 ×10^6 | 1.9±0.12 ×10^6 | 9.2±0.57 ×10^6 | 0.106±0.10 ×10^6 | marked cell death | 20 % of maximal LDH release | Marked loss of spermatocytes and spermatids | very little | slight, non-significant reduction | normal | – |
| NNC(=O)c1nn(Cc2ccc(Cl)cc2Cl)c2ccccc12 [adjudin] | – | – | – | – | – | – | – | – | – | – | – | – | 10,000 fold |
